Assay results taken from patent US10308617B2, “Triazole benzamide derivatives and the compositions and methods of treatment regarding the same” (An2H Discovery Limited, priority 2016, dated 2019).

Biological target: Parkin (Homo sapiens, UniProt O60260)
Experiment: Parkin pUB Auto-ubiquitinylation Assay (TR-FRET)
Assay type: biochemical
Conditions: for EC50: Parkin activation, pUb activated Parkin, read-out: Auto-ubiq EC50 (μM) [Example 3]
Excerpt: A Parkin pUB Auto-ubiquitinylation Assay is used to evaluate a compound's potency to activate Parkin's ability to Auto-ubiquitinylate itself.
The principle of this assay is that the E3 Ligase Parkin catalyzes the transfer of Ubiquitin to target proteins, but also has the ability to auto-ubiquitinylate itself. The phospho-Ubiquition (pUb) added to the assay alters the Parkin to a state where small molecule activators can enable the Parkin to auto-ubiquitinylate though the E1-E2 cascade reaction. The use of a Eu cryptate Ubiquition and anti 6His-d2 that binds to the His tagged Parkin will give a signal when the Eu cryptate Ubiquition is auto-ubiquitinylate onto the Parkin which can be monitored by TR-FRET.
Similar to the Activity-based probe assay in Example 2, screening for activating compounds can be distinguished from the controls as follows: • 100% activation signal=pUb activated Parkin+40 nM control activator in DMSO. • 0% activation signal=pUb activated Parkin+DMSO only. • Parkin activators can be identified by an increase of the 0% activation signal TR-FRET signal. Materials: • Assay Plate: White 384 well plate (Corning 3572) • Enzyme 1: E1 (Ubiquitin-activating enzyme/UBE1 Boston Biochem E-305) • Enzyme 2: E2 (UBcH7/Ube2L3 Boston Biochem E2-640) • Enzyme 3: Parkin-His tagged 203 μM (10.5 mg/ml) • pUb: Phospho-Ubiquitin (S65) (Boston Biochem U-102) • Eu Cryptate Reagent: Ubiquitin Eu (CisBio 61UBIKLA) • DMSO: DMSO (Sigma-34869-2.5L) • Reaction Buffer: 50 mM HEPES, 50 mM NaCl, 1 mM MgCl2, 0.005% Tween 20, 0.1% PF-127 (Fisher Scientific 50-310-494), pH 8.5 • Detection Buffer: 50 mM HEPES, 50 mM NaCl, 800 mM KF, 5 mM EDTA, 0.005% Tween 20, 0.1% PF-127, pH 8.5 • Detection Reagent Z: 13.4 nM Anti-6His-d2 in detection buffer • d2 Reagent: Anti-6His-d2 (CisBio 61HISDLA)
Enzyme Reaction (15 min pre-incubation with Parkin, pUb and activator only) • Parkin: 196 nM • pUb: 196 nM • DMSO: 1% DMSO • E1: 5 nM • E2: 50 nM • Ubiquitin Eu: 8.8 nM • Reaction time: 120 minutes • Temperature: 22° C. • Total volume: 10 μl reaction
Take 10 μl of Enzyme Reaction above and add 10 μl detection Reagent Z under the following conditions:
Assay Procedure: • 1) Load assay plate wells with 4.9 μl 400.0 nM Parkin, 400 nM pUb in reaction buffer by use of Eppendorf 12-channel pipette. • 2) Deliver 0.1 μl 100× activator candidates in DMSO by use of Echo 555 compound dispenser. Highest 100× concentration=100 μm and then twofold dilutions. Add each compound and control in duplicate wells. • 3) Spin 1000 rpm, 2 minutes, at room temp. • 4) Incubate plate for 15 minutes at room temp. • 5) Add 5 μl 10 nM E1, 100 nM E2, 17.6 nM Ubiquitin Eu and 2 mM ATP in Reaction Buffer by use of Eppendorf 12-channel pipette. • 6) Spin 1000 rpm, 2 minutes, at room temp. • 7) Incubate plate for 120 minutes at room temp. • 8) Add 10 μl 13.4 nM anti his d2 in detection buffer by use of Eppendorf 12-channel pipette. • 9) Spin 1000 rpm, 2 minutes, at room temp. • 10) Incubate plate for 120 minutes at room temp. • 11) Read plates on Perkin Elmer Envision instrument with the following parameters: • LANCE dual laser protocol loaded into the Envision® software • Top Mirror: LANCE/DELFIA Duel/Bias (Bar code 446) • Emission Filter: APC 665 EM (Bar code 205) • 2nd Emission Filter: Europium 615 EM (Bar code 203) • Read 655 nm (channel 1) and 615 nm (channel 2) wavelengths on Envision®
Data Analysis: The Data can be read in CSV files. There are two tables in those CSV files, which are the values of 655 nm (channel 1) and 615 nm (channel 2) wavelengths respectively. The data is converted to an HTRF Ratio=(Channel 1/Channel 2)*10,000
The average of all the 0 uM controls (DMSO only)=BKGD (Background—0% activation). Subtract BKGD from each HTRF Ratio value=HTRF-BKGD. The average of all the […] control activator in DMSO controls=Max (100% activation). The following equation is then used to calculate % Activation for each well/candidate as follows: % Activation=(HTRF-BKGD/Max)*100. […]

Parkin, sequence (O60260 whole entry, other chains not shown): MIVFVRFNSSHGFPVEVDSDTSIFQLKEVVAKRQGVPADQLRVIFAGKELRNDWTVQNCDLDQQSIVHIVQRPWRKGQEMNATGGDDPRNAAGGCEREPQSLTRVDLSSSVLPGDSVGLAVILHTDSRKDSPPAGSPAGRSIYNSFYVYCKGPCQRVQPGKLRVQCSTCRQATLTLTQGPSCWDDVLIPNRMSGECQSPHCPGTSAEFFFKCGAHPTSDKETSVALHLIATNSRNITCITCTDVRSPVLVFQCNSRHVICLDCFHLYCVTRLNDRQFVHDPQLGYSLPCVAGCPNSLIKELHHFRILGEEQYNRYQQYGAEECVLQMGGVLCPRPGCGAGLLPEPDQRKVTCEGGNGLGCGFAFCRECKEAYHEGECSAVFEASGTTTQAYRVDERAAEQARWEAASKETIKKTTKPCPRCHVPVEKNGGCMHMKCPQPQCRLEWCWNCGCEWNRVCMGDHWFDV

| SMILES | EC50 [µM] | Parkin activity in an auto-ubiquitination assay |
| --- | --- | --- |
| O=C(Nc1nc(Nc2cc(N3CCCC3)nc3ccccc23)n(-c2ccccc2)n1)c1ccccc1 [Compound A1] | > 40 | – |
| O=C(Nc1nc(NC(=O)c2cc3ccccc3s2)n(-c2ccccc2)n1)c1ccccc1 [Compound A2] | > 40 | – |
| O=C(Nc1nc(NC(=O)c2ccccc2)n(-c2ccccc2)n1)c1ccccc1 [Compound A, N,N′-(1-phenyl-1H-1,2,4-triazole-3,5-diyl)dibenzamide] | 2.3 | increases |
| O=C(Nc1nc(Nc2nc(N3CCCC3)c3ccccc3n2)n(-c2ccccc2)n1)c1ccccc1 [Compound B1] | > 40 | – |
| O=C(Nc1nc(NC(=O)c2ccc3ccccc3n2)n(-c2ccccc2)n1)c1ccccc1 [Compound B2] | > 40 | – |
| CC(=O)Nc1nc(NC(C)=O)n(-c2ccccc2)n1 [Compound B] | > 40 | – |
| O=C(Nc1nc(Nc2ncnc3ccccc23)n(-c2ccccc2)n1)c1cccs1 [Compound C1] | > 100 | – |
| Cc1ccccc1C(=O)Nc1nc(NC(=O)/C=C/c2ccccc2)n(-c2ccccc2)n1 [Compound C2] | > 40 | – |
| O=C(/C=C/c1ccccc1)Nc1nc(NC(=O)c2ccccc2)nn1-c1ccccc1 [Compound C, N-(5-cinnamamido-1-phenyl-1H-1,2,4-triazol-3-yl)benzamide] | > 40 | increases |
| CN1CCC(C(=O)Nc2nc(Nc3ncnc4ccccc34)n(-c3ccccc3)n2)CC1 [Compound D1] | > 40 | – |
| O=C(Nc1nc(NC(=O)c2ccccc2)n(-c2ccc3ccccc3n2)n1)c1ccccc1 [Compound D2] | > 40 | – |
| O=C(Nc1nc(Nc2nc(O)nc3ccccc23)n(-c2ccccc2)n1)c1ccccc1 [Compound E1] | > 40 | – |
| O=C(Nc1nc(NC(=O)c2ccccc2)n(-c2ccc3c(c2)OCCO3)n1)c1ccccc1 [Compound E2] | > 40 | – |
| O=C(Nc1nc(NC(=O)c2ccccc2)n(-c2ccc(I)cc2)n1)c1ccccc1 [Compound E, N-[5-benzamido-1-(4-iodophenyl)-1,2,4-triazol-3-yl]benzamide] | > 40 | – |
| CCN(CC)c1cc(Nc2nc(NC(=O)c3ccccc3)nn2-c2ccccc2)ncn1 [Compound F1] | > 40 | – |
| COc1ccc(-n2nc(NC(=O)c3ccccc3)nc2NC(=O)c2ccccc2)cc1 [Compound F2] | > 40 | – |
| Cc1ccccc1C(=O)Nc1nc(NC(=O)c2ccccc2C)n(-c2ccccc2)n1 [Compound F, 2-methyl-N-[5-[(2-methylbenzoyl)amino]-1-phenyl-1,2,4-triazol-3-yl]benzamide] | > 40 | – |
| O=C(Nc1nc(Nc2cc(N3CCCC3)ncn2)n(-c2ccccc2)n1)c1ccccc1 [Compound G1] | > 40 | – |
| O=C(Nc1nc(NC(=O)c2cccs2)nn1-c1ccccc1)c1ccccc1 [Compound G2] | > 40 | – |
| O=C(Nc1nc(Nc2ccncn2)n(-c2ccccc2)n1)c1ccccc1 [Compound H1] | > 40 | – |
| Cc1ccccc1C(=O)Nc1nc(NC(=O)c2ccccc2)n(-c2ccccc2)n1 [Compound H] | > 40 | – |
| O=C(Nc1nc(Nc2ccnc3ccccc23)n(-c2ccccc2)n1)c1ccccc1 [Compound I1] | > 40 | – |
| O=C(Nc1nc(NC(=O)c2ccccc2)n(C2CCOCC2)n1)c1ccccc1 [Compound I2] | > 40 | – |
| Nc1nc(Nc2nc(NC(=O)c3ccccc3)nn2-c2ccccc2)c2ccccc2n1 [Compound J1] | > 40 | – |
| O=C(Nc1nc(NC(=O)c2ccccc2)n(-c2ccc3ncccc3c2)n1)c1ccccc1 [Compound J2] | > 40 | – |
| CC(C)C(=O)Nc1nc(Nc2ncnc3ccccc23)n(-c2ccccc2)n1 [Compound K1] | > 40 | – |

| SMILES | EC50 [µM] | Parkin activity in an auto-ubiquitination assay |
| --- | --- | --- |
| Cc1ccccc1C(=O)Nc1nc(NC(=O)c2cccs2)nn1-c1ccccc1 [Compound K2] | > 40 | – |
| Cc1ccccc1C(=O)Nc1nc(NC(=O)c2ccccc2)nn1-c1ccccc1 [Compound K, N-(5-benzamido-2-phenyl-1,2,4-triazol-3-yl)-2-methyl-benzamide] | > 40 | – |
| C/C=C/C(=O)Nc1nc(Nc2ncnc3ccccc23)n(-c2ccccc2)n1 [Compound L1] | > 40 | – |
| C=CC(=O)Nc1nc(NC(=O)c2ccccc2)nn1-c1ccccc1 [Compound L2] | > 40 | – |
| O=C(Nc1nc(Nc2ncnc3ccccc23)n(-c2ccccc2)n1)c1ccccc1 [Compound L, N-[1-phenyl-5-(quinazolin-4-ylamino)-1,2,4-triazol-3-yl]benzamide] | > 40 | – |
| C=C(C)C(=O)Nc1nc(Nc2ncnc3ccccc23)n(-c2ccccc2)n1 [Compound M1] | > 40 | – |
| O=C(Nc1nc(NC(=O)c2nc3ccccc3s2)n(-c2ccccc2)n1)c1ccccc1 [Compound M2] | > 40 | – |
| Nc1nc(Nc2nc(NC(=O)c3ccccc3)nn2-c2ccccc2)nc2ccccc12 [Compound N1] | > 40 | – |
| O=C(Nc1nc(Nc2nc(O)c3ccccc3n2)n(-c2ccccc2)n1)c1ccccc1 [Compound O1] | > 40 | – |
| O=C(Nc1nc(NC(=O)c2ccccc2)n(-c2cccc3cccnc23)n1)c1ccccc1 [Compound O2] | > 40 | – |
| O=C(Nc1nc(NC(=O)c2ccccc2)n(-c2cccc3ncccc23)n1)c1ccccc1 [Compound P2] | > 40 | – |
| Cc1ccccc1C(=O)Nc1nc(-c2ccccn2)nn1-c1ccccc1 [Compound Q2] | > 40 | – |
| Cc1ccccc1C(=O)Nc1nc(Nc2ncnc3ccccc23)n(-c2ccccc2)n1 [Compound R2] | > 40 | – |
| Cc1ccccc1C(=O)Nc1nc(-c2ccncc2)nn1-c1ccccc1 [Compound S2] | > 40 | – |
| Cc1ccccc1C(=O)Nc1nc(-c2cccnc2)nn1-c1ccccc1 [Compound T2] | > 40 | – |
| O=C(/C=C/c1ccccc1)Nc1nc(NC(=O)c2ccccc2)nn1-c1ccccn1 [Compound U1] | > 40 | – |
| c1ccc(-n2nc(-c3ccccn3)nc2Nc2ncnc3ccccc23)cc1 [Compound U2] | > 40 | – |
| O=C(Nc1nc(NC(=O)c2cccc([N+](=O)[O-])c2)n(-c2ccccc2)n1)c1ccccc1 [Compound V1] | > 40 | – |
| Cc1ccccc1C(=O)Nc1nc(C2CCOCC2)nn1-c1ccccc1 [Compound V2] | > 40 | – |
| O=C(Nc1nc(NC(=O)c2ccco2)n(-c2ccccc2)n1)c1ccccc1 [Compound W1] | > 40 | – |
| Cc1ccccc1C(=O)Nc1nc(NC(=O)c2ccccc2C)n(C(C)C)n1 [Compound W2] | > 40 | – |
| O=C(Nc1nc(NC(=O)c2ccccc2)n(-c2ccc(-c3ccccc3)cc2)n1)c1ccccc1 [Compound X1] | > 40 | – |
| Cc1ccccc1C(=O)Nc1nc(NC(=O)c2ccccc2C)n(-c2ccccn2)n1 [Compound X2] | > 40 | – |
| O=C(Nc1nc(-c2ccccn2)nn1-c1ccccc1)c1ccccc1 [Compound Y1, N-(1-phenyl-3-(pyridin-2-yl)-1H-1,2,4-triazol-5-yl)benzamide] | > 40 | – |
| O=C(Nc1nc(NC(=O)c2ccccc2)n(-c2ccc(OC(F)(F)F)cc2)n1)c1ccccc1 [Compound Z1] | > 40 | – |
| O=C(Nc1nc(NC(=O)c2ccc(I)cc2)n(-c2ccccc2)n1)c1ccc(I)cc1 [D] | > 40 | – |
